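These data come from cells grown in 96-well plates and exposed to compound for 48 hours at five concentrations. GI50 is the concentration that inhibits growth by half. Definition used: TGI = concentration required for complete inhibition of growth.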
Experiments:
Assay in all cases: NCI tumour cell line growth inhibition, 48 h
[1] = test system: SF-295 CNS
[2] = test system: M14 melanoma
[3] = test system: SNB-19 CNS
[4] = test system: HL-60(TB) leukemia
[5] = test system: BT-549 breast
[6] = test system: OVCAR-5 ovarian
[7] = test system: EKVX NSCLC
[8] = test system: U251 CNS
[9] = test system: KM12 colon
[10] = test system: NCI-H226 lung

Compound | TGI [1] [µM] | TGI [2] [µM] | TGI [3] [µM] | TGI [4] [µM] | TGI [5] [µM] | TGI [6] [µM] | TGI [7] [µM] | TGI [8] [µM] | TGI [9] [µM] | GI50 [1] [µM] | GI50 [2] [µM] | GI50 [3] [µM] | GI50 [4] [µM] | GI50 [5] [µM] | GI50 [6] [µM] | GI50 [7] [µM] | GI50 [8] [µM] | GI50 [9] [µM] | TGI [10] [µM]
Cc1ccc(SC(=O)N2C(=S)NC(=NC3CCCCC3)C23CCCCC3)cc1 | > 100 | > 100 | > 100 | > 100 | > 100 | > 100 | > 100 | > 100 | > 100 | – | – | – | – | – | – | – | – | – | –
CCN(CC)CCCC(C)Nc1c2ccc(C)cc2nc2ccc(OC)cc12 (configuration not stated) | 4.89 | 3.18 | 35.7 | 9.44 | 27.3 | 21.6 | 16 | 4.45 | 9.19 | 1.47 | 1.58 | 4.78 | 2.71 | 10.7 | 2.11 | 2.35 | 1.35 | 1.39 | –
CN=C1SC(=Nc2ccc(N(C)C)cc2)N1C | > 100 | > 100 | > 100 | > 100 | – | > 100 | 72.7 | > 100 | > 100 | – | – | – | – | – | – | – | – | – | > 100
CCOC(=O)[C@H]1Nc2ccc(OC)cc2C2c3ccccc3CC21 (some centres not stated) | > 100 | > 100 | > 100 | – | – | > 100 | – | > 100 | > 100 | – | – | – | – | – | – | – | – | – | > 100
COc1ccc2c(c1)[n+]([O-])c(/C(C)=N/NC(=O)CC#N)c[n+]2[O-] | > 100 | > 100 | > 100 | > 100 | – | > 100 | > 100 | > 100 | > 100 | – | – | – | – | – | – | – | – | – | > 100
